Results published in ChEMBL document CHEMBL1157124, “Synthesis and anticancer evaluation of alpha-lipoic acid derivatives” (Bioorg Med Chem Lett, 2010).

Columns and labels:
[1] = tested on: CCRF S-180; assay: Antitumor activity against mouse S180 cells xenografted in ICR mouse assessed as reduction of tumor weight at 200 mg/kg, ig administered 2 days after tumor inoculation qd for 7 days; type: functional; details: route intragastric
[2] = tested on: CCRF S-180; assay: Antitumor activity against mouse S180 cells xenografted in ICR mouse assessed as reduction of tumor weight at 100 mg/kg, ig administered 2 days after tumor inoculation qd for 7 days; type: functional; details: route intragastric
[3] = tested on: CCRF S-180; assay: animal or person; details: Mus musculus, CCRF S-180, po, read-out: INH
Description: Antitumor activity against mouse S180 cells xenografted in ICR mouse assessed as inhibition of tumor weight at 100 mg/kg, ig administered 2 days after tumor inoculation qd for 7 days relative to control

[4] = tested on: Mus musculus; assay: Acute toxicity in ICR mouse assessed as change in body weight at 100 mg/kg, ip qd for 4 days; type: organism-based; set-up: dose 100 mg/kg, route intraperitoneal; details: in vivo, 96 h
[5] = tested on: Bel-7402; assay: Cytotoxicity against human Bel7402 cells assessed as growth inhibition at 1 ug/ml after 24 hrs by MTT assay; type: functional; details: Bel-7402, 24 h, read-out: GI
[6] = tested on: Mus musculus; assay: Acute toxicity in ICR mouse assessed as mortality at 1000 mg/kg, ig; type: organism-based; set-up: dose 1000 mg/kg, route intragastric; details: in vivo, po
[7] = tested on: PC-3; assay: Cytotoxicity against human PC3 cells assessed as growth inhibition at 1 ug/ml after 24 hrs by MTT assay; type: functional; details: PC-3, 24 h, read-out: GI
[8] = tested on: PC-3; assay: Cytotoxicity against human PC3 cells assessed as growth inhibition at 100 ug/ml after 24 hrs by MTT assay; type: functional; details: PC-3, 24 h, read-out: GI
[9] = tested on: PC-3; assay: Cytotoxicity against human PC3 cells assessed as growth inhibition at 10 ug/ml after 24 hrs by MTT assay; type: functional; details: PC-3, 24 h, read-out: GI
[10] = tested on: CCRF S-180; assay: Cytotoxicity against mouse S180 cells assessed as growth inhibition at 100 ug/ml after 24 hrs by MTT assay; type: functional; details: CCRF S-180, 24 h
[11] = tested on: NCI-H460; assay: Cytotoxicity against human NCI-H460 cells assessed as growth inhibition at 100 ug/ml after 24 hrs by MTT assay; type: functional; details: NCI-H460, 24 h, read-out: GI
[12] = tested on: NCI-H460; assay: Cytotoxicity against human NCI-H460 cells assessed as growth inhibition at 10 ug/ml after 24 hrs by MTT assay; type: functional; details: NCI-H460, 24 h, read-out: GI
[13] = Cytotoxicity against human HO8910 cells assessed as growth inhibition at 10 ug/ml after 24 hrs by MTT assay; type: functional; details: HO-8910, 24 h, read-out: GI
[14] = tested on: CCRF S-180; assay: Cytotoxicity against mouse S180 cells assessed as growth inhibition at 1 ug/ml after 24 hrs by MTT assay; type: functional; details: CCRF S-180, 24 h
[15] = tested on: CCRF S-180; assay: Cytotoxicity against mouse S180 cells assessed as growth inhibition at 10 ug/ml after 24 hrs by MTT assay; type: functional; details: CCRF S-180, 24 h
[16] = tested on: KB; assay: Cytotoxicity against human KB cells assessed as growth inhibition at 100 ug/ml after 24 hrs by MTT assay; type: functional; details: read-out: GI
[17] = tested on: Mus musculus; assay: Acute toxicity in ICR mouse assessed as mortality at 200 mg/kg, ip qd for 9 days measured on day 11; type: organism-based; set-up: dose 200 mg/kg, route intraperitoneal; details: in vivo, 216 h
[18] = tested on: KB; assay: Cytotoxicity against human KB cells assessed as growth inhibition at 10 ug/ml after 24 hrs by MTT assay; type: functional; details: read-out: GI
[19] = tested on: PC-3; assay: Cytotoxicity against human PC3 cells assessed as growth inhibition at 0.1 ug/ml after 24 hrs by MTT assay; type: functional; details: PC-3, 24 h, read-out: GI
[20] = tested on: Mus musculus; assay: Acute toxicity in ICR mouse assessed as mortality at 100 mg/kg, ip qd for 4 days; type: organism-based; set-up: dose 100 mg/kg, route intraperitoneal; details: in vivo, 96 h
[21] = Cytotoxicity against human HO8910 cells assessed as growth inhibition at 100 ug/ml after 24 hrs by MTT assay; type: functional; details: HO-8910, 24 h, read-out: GI
[22] = Cytotoxicity against human HO8910 cells assessed as growth inhibition at 1 ug/ml after 24 hrs by MTT assay; type: functional; details: HO-8910, 24 h, read-out: GI
[23] = tested on: Bel-7402; assay: Cytotoxicity against human Bel7402 cells assessed as growth inhibition at 10 ug/ml after 24 hrs by MTT assay; type: functional; details: Bel-7402, 24 h, read-out: GI
[24] = tested on: KB; assay: Cytotoxicity against human KB cells assessed as growth inhibition at 1 ug/ml after 24 hrs by MTT assay; type: functional; details: read-out: GI
[25] = tested on: Bel-7402; assay: Cytotoxicity against human Bel7402 cells assessed as growth inhibition at 100 ug/ml after 24 hrs by MTT assay; type: functional; details: Bel-7402, 24 h, read-out: GI
[26] = tested on: NCI-H460; assay: Cytotoxicity against human NCI-H460 cells assessed as growth inhibition at 0.1 ug/ml after 24 hrs by MTT assay; type: functional; details: NCI-H460, 24 h, read-out: GI
[27] = tested on: NCI-H460; assay: Cytotoxicity against human NCI-H460 cells assessed as growth inhibition at 1 ug/ml after 24 hrs by MTT assay; type: functional; details: NCI-H460, 24 h, read-out: GI
[28] = tested on: CCRF S-180; assay: Antitumor activity against mouse S180 cells xenografted in ICR mouse assessed as inhibition of tumor weight at 200 mg/kg, ig administered 2 days after tumor inoculation qd for 7 days relative to control; type: functional; details: CCRF S-180, po, route intragastric
[29] = Acute toxicity in ICR mouse; type: organism-based; details: in vivo
[30] = tested on: CCRF S-180; assay: Cytotoxicity against mouse S180 cells assessed as growth inhibition at 0.1 ug/ml after 24 hrs by MTT assay; type: functional; details: CCRF S-180, 24 h
[31] = tested on: Mus musculus; assay: Acute toxicity in ICR mouse assessed as gross pathological changes at 1000 mg/kg, ig; type: organism-based; set-up: dose 1000 mg/kg, route intragastric; details: in vivo, po
[32] = tested on: KB; assay: Cytotoxicity against human KB cells assessed as growth inhibition at 0.1 ug/ml after 24 hrs by MTT assay; type: functional; details: read-out: GI
[33] = tested on: HT-29; assay: Induction of apoptosis in human HT-29 cells; type: functional, cell-based
[34] = Growth inhibition of human Detroit 562 cells at 10 uM; type: functional
[35] = Toxicity in rat; type: organism-based; details: in vivo
[36] = tested on: SMMC-7721; assay: Induction of apoptosis in human SMMC7721 cells at 5 mM after 96 hrs; type: functional
[37] = tested on: FaDu; assay: Growth inhibition of human FADU cells at 10 uM; type: functional
[38] = tested on: SCC-25; assay: Growth inhibition of human SCC25 cells at 10 uM; type: functional
[39] = tested on: SCC-9; assay: Growth inhibition of human SCC9 cells at 10 uM; type: functional
[40] = Cytotoxicity against human HO8910 cells assessed as growth inhibition at 0.1 ug/ml after 24 hrs by MTT assay; type: functional; details: HO-8910, 24 h, read-out: GI

Compound	Activity [1]	Activity [2]	inhibition of growth at 1 µg/mL [5]	inhibition of growth at 100 µg/mL [11]	inhibition of growth at 10 µg/mL [12]	inhibition of growth at 100 µg/mL [16]	inhibition of growth at 10 µg/mL [18]	inhibition of growth at 100 µg/mL [21]	inhibition of growth at 1 µg/mL [22]	inhibition of growth at 10 µg/mL [23]	inhibition of growth at 1 µg/mL [24]	inhibition of growth at 100 µg/mL [25]	inhibition of growth at 0.1 µg/mL [26]	inhibition of growth at 1 µg/mL [27]	further results
O=C(CCCCCCC(=O)Nc1ccccc1)NO [VORINOSTAT]	1.53 g	1.61 g	–	–	–	–	–	–	–	–	–	–	–	–	–
O=P1(N(CCCl)CCCl)NCCCO1 (stereo not given) [CYCLOPHOSPHAMIDE ANHYDROUS]	–	0.39 g	–	–	–	–	–	–	–	–	–	–	–	–	inhibition in vivo at 100 mg/kg [3]: 74.5%
O=C(CCCCC1CCSS1)Nc1ccc(Cl)cn1 (stereo not given)	1.15 g	1.53 g	7.44%	58.5%	33.7%	74.5%	28.6%	68.5%	2.1%	16.1%	0.76%	48.5%	3.93%	6.26%	Activity [4]: 10%; Activity [6]: Non-toxic; inhibition of growth at 1 µg/mL [7]: 2%; inhibition of growth at 100 µg/mL [8]: 42.3%; inhibition of growth at 10 µg/mL [9]: 17.1%; inhibition at 100 µg/mL [10]: 74.3%; inhibition of growth at 10 µg/mL [13]: 27.5%; inhibition at 1 µg/mL [14]: 13%; inhibition at 10 µg/mL [15]: 24.5%; Activity [17]: Toxic; inhibition of growth at 0.1 µg/mL [19]: 2.22%; Activity [20]: Non-toxic; inhibition in vivo at 200 mg/kg [28]: 24.7%; LD50 [29]: 1000 mg/kg; inhibition at 0.1 µg/mL [30]: 5.92%; Activity [31]: Non-toxic
O=C(O)CCCCC1CCSS1 (stereo not drawn) [LIPOIC ACID, ALPHA]	–	–	2.52%	5.72%	2.39%	11%	7.18%	5.11%	1.05%	4.77%	8.6%	8.17%	8.71%	4.65%	inhibition of growth at 0.1 µg/mL [32]: 0.14%; EC50 [33]: 250 µM; inhibition at 10 µM [34]: 50%; LD50 [35]: 2000 mg/kg; Activity [36]: 65%; inhibition at 10 µM [37]: 50%; inhibition at 10 µM [38]: 50%; inhibition at 10 µM [39]: 50%; inhibition of growth at 0.1 µg/mL [40]: 3.39%
